# Earlier results, collected in patent US8518371B2, “Hypoxia-selective, weakly basic 2-nitroimidazole delivery agents and methods of use thereof” (Natural Pharmacia International, Inc., priority 2006, dated 2013).
# How the values were obtained:
# [1] = in vivo
# animal models = conditions: in vivo
# [2] = escalating, rarely to
retention times in tissues [1],Compound,selectivity for tumor cells (tumor cells),safety and efficacy in animal models (animal models),MTD [2] [mg/m^2]
low,"N[C@@H](Cc1ccc(B(O)O)cc1)C(=O)O [BPA, L-4-dihydroxy-borylphenylalanine]",moderate,safe and efficacious,
,CC[C@]1(O)C[C@@H]2CN(CCc3c([nH]c4ccccc34)[C@@](C(=O)OC)(c3cc4c(cc3OC)N(C)[C@H]3[C@@](O)(C(=O)OC)[C@H](OC(C)=O)[C@]5(CC)C=CCN6CC[C@]43[C@@H]65)C2)C1 [vinblastine],,,≤ 18.5
low,disodium mercapto-closo-dodecaborate [BSH],moderate,safe and efficacious,
